Measurements: ChEMBL document CHEMBL5465560, “Selectivity Literature for EUbOPEN Chemogenomic Library” (2024)
One block for each compound: values may come before it.

What was measured:
[1] = biological target: RAC-beta serine/threonine-protein kinase (Homo sapiens) (UniProt P31751); assay: Selectivity interaction (Kinase panel (Invitrogen)) EUB0000639a AKT2; details: at 200 nM
[2] = biological target: Mitogen-activated protein kinase kinase kinase kinase 1 (Homo sapiens) (UniProt Q92918); assay: Selectivity interaction (ActivX KiNativ screen (kinase selectivity in THP-1 cell lysates)) EUB0000639a MAP4K1; format: subcellular; details: lysate, at 0.01 µM
Sequence of Mitogen-activated protein kinase kinase kinase kinase 1 (Homo sapiens) (Q92918 whole entry, looked up): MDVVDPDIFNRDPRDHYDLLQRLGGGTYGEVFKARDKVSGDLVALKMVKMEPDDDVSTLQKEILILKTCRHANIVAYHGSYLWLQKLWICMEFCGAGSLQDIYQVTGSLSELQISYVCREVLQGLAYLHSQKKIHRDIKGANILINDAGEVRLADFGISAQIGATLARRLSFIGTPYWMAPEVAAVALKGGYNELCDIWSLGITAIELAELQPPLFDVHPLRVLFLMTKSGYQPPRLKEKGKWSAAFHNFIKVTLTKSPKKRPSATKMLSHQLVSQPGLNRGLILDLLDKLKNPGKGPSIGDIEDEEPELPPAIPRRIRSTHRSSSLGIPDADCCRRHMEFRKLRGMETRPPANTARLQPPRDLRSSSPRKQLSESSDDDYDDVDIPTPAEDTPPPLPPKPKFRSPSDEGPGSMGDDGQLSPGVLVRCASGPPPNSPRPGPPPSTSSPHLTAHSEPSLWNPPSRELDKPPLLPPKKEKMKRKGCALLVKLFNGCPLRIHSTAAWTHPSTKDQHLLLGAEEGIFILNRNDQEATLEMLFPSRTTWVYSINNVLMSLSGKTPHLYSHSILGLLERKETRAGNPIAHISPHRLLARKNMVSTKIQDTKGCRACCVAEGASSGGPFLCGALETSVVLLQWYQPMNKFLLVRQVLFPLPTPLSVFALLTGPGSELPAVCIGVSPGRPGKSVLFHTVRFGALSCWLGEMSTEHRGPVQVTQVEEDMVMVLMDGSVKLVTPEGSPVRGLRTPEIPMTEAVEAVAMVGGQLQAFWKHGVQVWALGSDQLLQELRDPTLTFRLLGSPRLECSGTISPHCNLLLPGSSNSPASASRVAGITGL

[3] = biological target: Mitogen-activated protein kinase 14 (Homo sapiens, UniProt Q16539); assay: Selectivity interaction (Kinase panel (Invitrogen)) EUB0000639a MAPK14; details: at 200 nM
Sequence of Mitogen-activated protein kinase 14 (Q16539 whole entry): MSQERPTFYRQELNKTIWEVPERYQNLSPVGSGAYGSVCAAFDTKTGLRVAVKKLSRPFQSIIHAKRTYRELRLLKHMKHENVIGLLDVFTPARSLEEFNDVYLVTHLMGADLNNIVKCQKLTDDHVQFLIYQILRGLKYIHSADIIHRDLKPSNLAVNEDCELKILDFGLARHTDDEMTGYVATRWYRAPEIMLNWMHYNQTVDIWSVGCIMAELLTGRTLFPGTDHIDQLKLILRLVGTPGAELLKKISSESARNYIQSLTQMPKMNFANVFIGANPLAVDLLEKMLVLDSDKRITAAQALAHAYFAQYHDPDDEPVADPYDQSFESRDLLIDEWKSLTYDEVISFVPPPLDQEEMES

[4] = biological target: T1, Activin receptor type-1B (Homo sapiens) (UniProt P36896); details: at 10 µM
T1 sequence (whole entry): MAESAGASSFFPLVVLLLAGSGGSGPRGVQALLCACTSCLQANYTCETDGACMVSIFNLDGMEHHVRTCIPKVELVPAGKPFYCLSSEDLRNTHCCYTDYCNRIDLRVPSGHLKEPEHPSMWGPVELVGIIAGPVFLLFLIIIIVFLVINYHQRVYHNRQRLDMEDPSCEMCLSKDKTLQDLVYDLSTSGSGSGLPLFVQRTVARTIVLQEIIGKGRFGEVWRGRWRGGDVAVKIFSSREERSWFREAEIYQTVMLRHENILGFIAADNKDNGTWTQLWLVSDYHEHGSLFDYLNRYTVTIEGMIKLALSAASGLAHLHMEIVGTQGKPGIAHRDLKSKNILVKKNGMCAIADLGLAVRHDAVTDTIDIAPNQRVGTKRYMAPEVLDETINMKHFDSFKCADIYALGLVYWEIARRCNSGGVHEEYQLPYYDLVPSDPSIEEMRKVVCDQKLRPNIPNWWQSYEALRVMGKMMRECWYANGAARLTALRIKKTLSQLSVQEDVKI

[5] = biological target: Serine/threonine-protein kinase 26 (Homo sapiens, UniProt Q9P289); assay: Selectivity interaction (KinomeScan (DiscoverX)) EUB0000595a STK26; details: at 10 µM
Sequence of Serine/threonine-protein kinase 26 (Q9P289 2-416 limits assumed): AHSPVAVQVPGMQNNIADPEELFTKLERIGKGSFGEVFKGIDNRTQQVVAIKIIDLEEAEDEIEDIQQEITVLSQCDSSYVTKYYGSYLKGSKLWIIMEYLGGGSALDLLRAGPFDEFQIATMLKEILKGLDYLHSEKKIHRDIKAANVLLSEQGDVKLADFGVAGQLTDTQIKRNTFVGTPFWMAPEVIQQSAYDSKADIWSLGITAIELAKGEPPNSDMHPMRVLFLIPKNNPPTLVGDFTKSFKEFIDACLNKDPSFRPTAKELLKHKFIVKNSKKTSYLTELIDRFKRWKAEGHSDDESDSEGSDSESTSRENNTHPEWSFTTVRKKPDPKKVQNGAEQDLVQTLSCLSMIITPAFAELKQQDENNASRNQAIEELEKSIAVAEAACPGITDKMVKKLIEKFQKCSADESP

[6] = biological target: T2, Testis-specific serine/threonine-protein kinase 1 (Homo sapiens) (UniProt Q9BXA7); details: at 10 µM
T2 sequence (whole entry): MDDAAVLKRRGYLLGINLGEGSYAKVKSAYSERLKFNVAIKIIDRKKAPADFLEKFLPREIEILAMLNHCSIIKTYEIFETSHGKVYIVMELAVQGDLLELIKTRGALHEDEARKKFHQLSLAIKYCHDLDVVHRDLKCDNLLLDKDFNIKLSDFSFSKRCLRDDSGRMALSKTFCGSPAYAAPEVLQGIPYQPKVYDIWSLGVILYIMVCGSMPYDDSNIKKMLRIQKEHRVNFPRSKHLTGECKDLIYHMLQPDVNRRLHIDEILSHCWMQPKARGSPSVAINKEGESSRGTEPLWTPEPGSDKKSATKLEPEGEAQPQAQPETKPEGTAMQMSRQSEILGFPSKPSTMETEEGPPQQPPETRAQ

[7] = biological target: T3, Membrane-associated tyrosine- and threonine-specific cdc2-inhibitory kinase (Homo sapiens) (UniProt Q99640); assay: Selectivity interaction (KinomeScan (DiscoverX)) EUB0000229b PKMYT1; details: at 10 µM
T3 sequence (whole entry): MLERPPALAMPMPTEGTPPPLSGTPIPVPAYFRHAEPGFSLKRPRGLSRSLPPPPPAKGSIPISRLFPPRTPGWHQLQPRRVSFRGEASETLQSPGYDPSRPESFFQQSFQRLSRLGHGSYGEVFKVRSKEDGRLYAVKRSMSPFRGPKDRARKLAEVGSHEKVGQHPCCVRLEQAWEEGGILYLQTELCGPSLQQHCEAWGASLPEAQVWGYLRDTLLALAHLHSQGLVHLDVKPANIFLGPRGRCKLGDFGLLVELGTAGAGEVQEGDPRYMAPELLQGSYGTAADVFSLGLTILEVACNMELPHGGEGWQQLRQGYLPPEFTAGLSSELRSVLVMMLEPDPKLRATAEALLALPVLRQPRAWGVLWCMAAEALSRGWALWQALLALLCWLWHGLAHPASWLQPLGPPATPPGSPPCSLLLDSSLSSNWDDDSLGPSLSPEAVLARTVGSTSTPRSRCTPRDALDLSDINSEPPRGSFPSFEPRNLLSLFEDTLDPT

[8] = biological target: T4, Mitogen-activated protein kinase kinase kinase 7 (Homo sapiens) (UniProt O43318); assay: Selectivity interaction (ActivX KiNativ screen (ex vivo kinase selectivity in human PBMCs)) EUB0001619a MAP3K7; format: cell-based; details: PBMC, at 1 µM
T4 sequence (whole entry): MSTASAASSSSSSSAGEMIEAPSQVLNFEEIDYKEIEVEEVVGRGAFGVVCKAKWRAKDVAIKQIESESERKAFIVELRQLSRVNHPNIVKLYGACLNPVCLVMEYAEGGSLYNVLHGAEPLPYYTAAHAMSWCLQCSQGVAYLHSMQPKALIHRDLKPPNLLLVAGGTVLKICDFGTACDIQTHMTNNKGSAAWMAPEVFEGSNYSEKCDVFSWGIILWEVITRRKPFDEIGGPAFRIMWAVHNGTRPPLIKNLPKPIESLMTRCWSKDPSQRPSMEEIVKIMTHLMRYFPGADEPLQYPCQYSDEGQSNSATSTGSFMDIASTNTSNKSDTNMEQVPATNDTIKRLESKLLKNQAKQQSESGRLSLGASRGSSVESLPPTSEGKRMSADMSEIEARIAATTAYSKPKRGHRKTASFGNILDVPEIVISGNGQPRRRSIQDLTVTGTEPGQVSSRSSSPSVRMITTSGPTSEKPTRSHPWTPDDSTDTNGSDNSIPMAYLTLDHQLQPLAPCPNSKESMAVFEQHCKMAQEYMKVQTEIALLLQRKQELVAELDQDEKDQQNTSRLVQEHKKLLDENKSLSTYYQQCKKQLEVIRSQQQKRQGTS

[9] = biological target: Serine/threonine-protein kinase PAK 6 (Homo sapiens) (UniProt Q9NQU5); assay: Selectivity interaction (KinomeScan (DiscoverX)) EUB0000666a PAK6; details: at 10 µM
Sequence of Serine/threonine-protein kinase PAK 6 (Homo sapiens) (Q9NQU5 whole entry, looked up): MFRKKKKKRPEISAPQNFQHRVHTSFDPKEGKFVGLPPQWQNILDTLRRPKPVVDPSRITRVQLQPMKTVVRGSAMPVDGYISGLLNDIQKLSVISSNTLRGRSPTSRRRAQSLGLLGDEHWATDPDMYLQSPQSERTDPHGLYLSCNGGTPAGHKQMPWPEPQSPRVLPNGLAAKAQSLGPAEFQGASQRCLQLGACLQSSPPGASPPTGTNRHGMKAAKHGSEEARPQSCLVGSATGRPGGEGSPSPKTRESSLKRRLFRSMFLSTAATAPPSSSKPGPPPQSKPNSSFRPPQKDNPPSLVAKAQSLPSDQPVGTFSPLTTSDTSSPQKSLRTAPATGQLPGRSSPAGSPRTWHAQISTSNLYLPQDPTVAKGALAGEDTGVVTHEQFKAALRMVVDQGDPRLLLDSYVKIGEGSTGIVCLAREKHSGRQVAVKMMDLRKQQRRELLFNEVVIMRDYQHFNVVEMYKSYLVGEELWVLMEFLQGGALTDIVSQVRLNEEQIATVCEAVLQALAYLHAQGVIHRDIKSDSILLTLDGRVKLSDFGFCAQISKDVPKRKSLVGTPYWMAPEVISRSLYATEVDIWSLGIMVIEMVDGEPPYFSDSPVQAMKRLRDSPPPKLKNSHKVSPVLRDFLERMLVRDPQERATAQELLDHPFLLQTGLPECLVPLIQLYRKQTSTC

Sequence of RAC-beta serine/threonine-protein kinase (Homo sapiens) (P31751 whole entry): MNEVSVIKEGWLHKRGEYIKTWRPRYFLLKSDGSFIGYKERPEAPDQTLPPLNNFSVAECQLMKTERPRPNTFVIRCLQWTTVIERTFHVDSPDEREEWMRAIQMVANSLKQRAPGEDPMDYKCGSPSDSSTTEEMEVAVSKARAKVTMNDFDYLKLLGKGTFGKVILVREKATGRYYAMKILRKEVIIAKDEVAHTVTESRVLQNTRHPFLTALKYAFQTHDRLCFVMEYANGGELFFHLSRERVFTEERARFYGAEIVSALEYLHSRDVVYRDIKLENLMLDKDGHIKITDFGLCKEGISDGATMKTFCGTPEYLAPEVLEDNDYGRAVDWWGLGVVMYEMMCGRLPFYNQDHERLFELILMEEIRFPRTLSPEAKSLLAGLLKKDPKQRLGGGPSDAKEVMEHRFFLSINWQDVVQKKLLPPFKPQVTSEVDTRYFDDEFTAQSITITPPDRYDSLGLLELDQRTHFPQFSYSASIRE

% of inhibition [1]: 4.03% | % of inhibition [2]: 6.1% | % of inhibition [3]: 18.3%
SMILES: CC[C@@H]1[C@H](F)C(=O)N[C@@H]1COc1nccc2cc(C(N)=O)c(OC)cc12 [ZIMLOVISERTIB]

% of control [4]: 100%
SMILES: CCN(CC)CCCCNc1ncc2cc(-c3cc(OC)cc(OC)c3)c(NC(=O)NC(C)(C)C)nc2n1

SMILES: COCC(=O)NC/C=C/c1ccc2ncnc(Nc3ccc(Oc4ccc(C)nc4)c(C)c3)c2c1 [CP-724714]
% of control [5]: 90% | % of control [6]: 100%

SMILES: COc1cc(N(C)c2ccnc3ccc(C(F)(F)F)cc23)cc(OC)c1OC
% binding [7]: 94%

SMILES: N#Cc1cccc(-c2c[nH]c3ncnc(N4CCOCC4)c23)c1
% of inhibition [8]: 21%

SMILES: O=C(NOC[C@H](O)CO)c1ccc(F)c(F)c1Nc1ccc(I)cc1F
% of control [9]: 94%
